Strand notation (5' to 3'): a small letter for the sugar, then the base; units joined by * are phosphorothioate-linked, units joined directly phosphodiester-linked; [ ] holds rarer units or linkages, { } end groups; capitals alone tell only the bases. d = 2'-deoxy (DNA)

In one data set the test system is human Cellular Inhibitor of Apoptosis-1 RNA. The experiment in a line: Inhibition of Cellular Inhibitor of Apoptosis-1 mRNA levels by quantitative real-time PCR after oligonucleotide treatment of cells. The conditions noted are these: phosphorothioate oligodeoxynucleotides; oligonucleotide at final concentration of 150 nM with LIPOFECTIN; real-time PCR; averages from three experiments. Format: cell-based. The protocol:
Cells were harvested 16 hours after oligonucleotide treatment.
Poly(A)+ mRNA was isolated according to Miura et al., Clin. Chem., 1996, 42, 1758-1764. Other methods for poly(A)+ mRNA isolation are taught in, for example, Ausubel, F. M. et al., Current Protocols in Molecular Biology, Volume 1, pp. 4.5.1-4.5.3, John Wiley & Sons, Inc., 1993. […] 60 μL lysis buffer (10 mM Tris-HCl, pH 7.6, 1 mM EDTA, 0.5 M NaCl, 0.5% NP-40, 20 mM vanadyl-ribonucleoside complex) was added to each well, the plate was gently agitated and then incubated at room temperature for five minutes. 55 μL of lysate was transferred to Oligo d(T) coated 96-well plates (AGCT Inc., Irvine Calif.). Plates were incubated for 60 minutes at room temperature, washed 3 times with 200 μL of wash buffer (10 mM Tris-HCl pH 7.6, 1 mM EDTA, 0.3 M NaCl). After the final wash, the plate was blotted on paper towels to remove excess wash buffer and then air-dried for 5 minutes. 60 μL of elution buffer (5 mM Tris-HCl pH 7.6), preheated to 70° C. was added to each well, the plate was incubated on a 90° C. hot plate for 5 minutes, and the eluate was then transferred to a fresh 96-well plate.
Cellular Inhibitor of Apoptosis-1 probes and primers were designed to hybridize to the human Cellular Inhibitor of Apoptosis-1 sequence, using published sequence information (GenBank accession number U37547, incorporated herein as SEQ ID NO:1).
For Cellular Inhibitor of Apoptosis-1 the PCR primers were: […]
Target sites are indicated by nucleotide numbers, as given in the sequence source reference (Genbank accession no. U37547), to which the oligonucleotide binds. All compounds in Table 1 are oligodeoxynucleotides with phosphorothioate backbones (internucleoside linkages) throughout. […] Data are averages from three experiments. If present, “N.D.” indicates “no data”.
Consider “ISIS 23363: phosphorothioate oligodeoxynucleotide ttttactttgaactgttt, Coding target site 2391 (antisense dT*dT*dT*dT*dA*dC*dT*dT*dT*dG*dA*dA*dC*dT*dG*dT*dT*dT)”, for which the “% Inhibition of Cellular Inhibitor of Apoptosis-1 mRNA levels” value (shortened to “% Inhibition”) worked out at 0%.

For the substance “ISIS 23351: phosphorothioate oligodeoxynucleotide tagagttcacaggaaaag, Coding target site 1285 (antisense dT*dA*dG*dA*dG*dT*dT*dC*dA*dC*dA*dG*dG*dA*dA*dA*dA*dG)”, the “% Inhibition” value was found to be 0%.

Regarding “ISIS 23358: phosphorothioate oligodeoxynucleotide ttcccagttactgagctt, Coding target site 1835 (antisense dT*dT*dC*dC*dC*dA*dG*dT*dT*dA*dC*dT*dG*dA*dG*dC*dT*dT)”, the “% Inhibition” value came to 78%.

On to “ISIS 23332: phosphorothioate oligodeoxynucleotide aaattacactccatagaa, 5′ UTR target site 4 (antisense dA*dA*dA*dT*dT*dA*dC*dA*dC*dT*dC*dC*dA*dT*dA*dG*dA*dA)”, for which the “% Inhibition” value was 0%.

Consider “ISIS 23350: phosphorothioate oligodeoxynucleotide caatctgacaagatcgtg, Coding target site 1234 (antisense dC*dA*dA*dT*dC*dT*dG*dA*dC*dA*dA*dG*dA*dT*dC*dG*dT*dG)”, for which the “% Inhibition” value was 0%.

For the substance “ISIS 23339: phosphorothioate oligodeoxynucleotide aagtcaatacccacaagc, 5′ UTR target site 497 (antisense dA*dA*dG*dT*dC*dA*dA*dT*dA*dC*dC*dC*dA*dC*dA*dA*dG*dC)”, the “% Inhibition” value came out at 0%.

Regarding “ISIS 23361: phosphorothioate oligodeoxynucleotide taccttgaatctcatcaa, Coding target site 2193 (antisense dT*dA*dC*dC*dT*dT*dG*dA*dA*dT*dC*dT*dC*dA*dT*dC*dA*dA)”, the “% Inhibition” value is 0%.

For “ISIS 23353: phosphorothioate oligodeoxynucleotide tttctcattggagacgta, Coding target site 1540 (antisense dT*dT*dT*dC*dT*dC*dA*dT*dT*dG*dG*dA*dG*dA*dC*dG*dT*dA)”, the “% Inhibition” value is on record as 32%.

For the substance “ISIS 23357: phosphorothioate oligodeoxynucleotide tggtaggtaagaaatctg, Coding target site 1717 (antisense dT*dG*dG*dT*dA*dG*dG*dT*dA*dA*dG*dA*dA*dA*dT*dC*dT*dG)”, the “% Inhibition” value came to 0%.

As for “ISIS 23369: phosphorothioate oligodeoxynucleotide atatagttcaccaaacat, 3′ UTR target site 3222 (antisense dA*dT*dA*dT*dA*dG*dT*dT*dC*dA*dC*dC*dA*dA*dA*dC*dA*dT)”, the “% Inhibition” value was determined as 0%.

Consider “ISIS 23341: phosphorothioate oligodeoxynucleotide aagcactttaacatgaca, 5′ UTR target site 661 (antisense dA*dA*dG*dC*dA*dC*dT*dT*dT*dA*dA*dC*dA*dT*dG*dA*dC*dA)”, for which the “% Inhibition” value stood at 15%.

Turning to “ISIS 23337: phosphorothioate oligodeoxynucleotide actttcttcctaactttg, 5′ UTR target site 352 (antisense dA*dC*dT*dT*dT*dC*dT*dT*dC*dC*dT*dA*dA*dC*dT*dT*dT*dG)”, the “% Inhibition” value amounted to 0%.

The same data set, now with this note: summary of Table 1; real-time PCR of mRNA levels.
As for “ISIS 23358: phosphorothioate oligodeoxynucleotide ttcccagttactgagctt, Coding target site 1835 (antisense dT*dT*dC*dC*dC*dA*dG*dT*dT*dA*dC*dT*dG*dA*dG*dC*dT*dT)”, the “inhibition of Cellular Inhibitor of Apoptosis-1 expression” value is on record as “at least 20%”.

In the case of “ISIS 23353: phosphorothioate oligodeoxynucleotide tttctcattggagacgta, Coding target site 1540 (antisense dT*dT*dT*dC*dT*dC*dA*dT*dT*dG*dG*dA*dG*dA*dC*dG*dT*dA)”, the “inhibition of Cellular Inhibitor of Apoptosis-1 expression” value is on record as “at least 20%”.

These data come from US20040009599A1, “Antisense modulation of cellular inhibitor of apoptosis-1 expression” (priority 1998, published 2004).
